According to patent US8206756B2, “Herbal composition for inflammatory disorders” (Piramal Life Sciences Limited, priority 2005, dated 2012):

Tests used:
[1] = system: IL-6; test: IL-6 production by synovial cells from a RA patient; format: cell-based; details: Homo sapiens, Synovial cell, 10 hours
Description: Cytokine production by synovial cells obtained from a rheumatoid arthritis (RA) patient undergoing knee replacement surgery was measured according to the method described by Brennan, F. M. et al (The Lancet. July 29: 244-247, (1989)). The synovial membrane tissue was digested in DMEM (Gibco) containing 10% FBS, 100 U/ml penicillin and 100 μg/ml streptomycin, 4 mg/ml collagenase type I (Worthington), 1.5 μg/ml Dnase type I (Sigma) and 15 U/ml heparin and incubated at 37° C. for 3 hours. After incubation, the digested tissue was filtered through a 70-μm membrane and the cells washed 3 times in complete medium (DMEM with 10% FBS). The synovial cells were cultured at 1×10^6 cells/ml in presence/absence of the test sample for 10 hours. The supernatants were harvested by centrifugation and levels of the cytokines (TNF-α, IL-1β, IL-6, IL-8) measured by ELISA. To assess the cytotoxic effect of the plant extracts, the cellular viability test was performed using MTS reagent. The 50% inhibitory concentration (IC50) values were calculated by a nonlinear regression method using GraphPad software (Prism 3.03).
Effect on proinflammatory cytokines produced by synovial cells obtained from a RA patient was studied for compound 1 as described by procedure of example 8.

[2] = system: THP-1 cell adhesion to HUVECs; test: Adhesion of THP-1 mononuclear cells to HUVEC monolayers; format: cell-based, human; details: for Fluorescence Intensity: TNF-α 1 ng/ml; for Fold of control: unstimulated DMSO control = 1, stimulated = 18
Description: Adhesion studies were performed with the promonocytic cell line THP-1, which has been established as a useful model for monocytes in adhesion studies in Circ. Res., 97, 236-243, 2005, with modifications. THP-1 cells were washed twice with labeling medium (M200 plus LSGS). THP-1 cells (6×10^5 cells per ml) were labeled with 10 μg/ml bis-carboxyethyl-carboxyfluorescein acetoxymethylester (a fluorescent probe, BCECF-AM; Sigma) for 30 min at RT. After quenching with 0.1% BSA, the pellet was resuspended in labeling medium. To evaluate monocyte adhesion, HUVEC monolayers treated with TNF-α (1 ng/ml) in the presence or absence of various concentrations of test sample. The media was removed, washed and labeled-THP-1-cells were added to the wells (6×10^4 cells per well) and incubated for 10 minutes at RT in the dark. After co incubation, the wells were washed, filled with lysis buffer (0.1% Triton-X in 1.5 M Tris buffer) and incubated for 30 min. The fluorescence was measured using a fluorescent reader (PolarStar Optima, BMG Labtech) at an excitation peak of 485 nm and an emission peak of 520 nm. Values are means±SEM, representing fluorescent adhesion data. BAY 11-7082 [(E)-3-(4-methylphenylsulfonyl)-2-propenenitrile] was used as a standard and DMSO as vehicle control.

[3] = system: Collagen-induced arthritis (CIA); test: Collagen-induced arthritis (CIA) in DBA/1J mice; format: in vivo; details: compared to vehicle treated group; H&E and Safranin O staining
Description: Male DBA/1J mice, aged 8-10 weeks, were immunized with 200 μg Collagen Type II as an emulsion in Freund's Complete Adjuvant, by an intradermal injection at the base of the tail. Twenty-one days later, the mice were administered a booster shot of 100 μg Collagen Type II. A set of naïve mice was also maintained alongside. From Day 23 onwards, the mice were assessed for the onset of rheumatoid arthritis using the Articular Index as a parameter. Mice with a minimum hind paw score of 2 were inducted into the study. Extract of example 1 was administered at a dose of 400 mpk (Milligram per kilogram body weight) by oral route twice daily for 12 days. Compound 1 was administered at a dose of 50 mpk and 100 mpk. by oral route twice daily for 12 days. Enbrel (3 mg/kg) was used as a standard and was given subcutaneous once daily. Paw volume and articular index were recorded daily. The data was analysed for statistical significance. On termination of the experiment the paws of the mice were processed for histopathological evaluation. Beneficial effect of extract of example 1 and compound 1 on pathology of arthritic (CIA) DBA/1J mice was evaluated. Microscopy was carried out after Hematoxylin and Eosin staining as well as Safranin O staining of synovial joints.

C=C1C(=O)OC2C3=C(C)CCCC3(C)CCC12O (centres unmarked) [Compound 1, 3a-hydroxy-5a,9-dimethyl-3-methylene-3a,4,5,5a,6,7,8,9b-octahydro-3H-naphtho[1,2-b]furan-2-one] was tested, and the IC50 [1] was 1400 nM, the “Fluorescence Intensity” value ([2]; 0.1 μM) was 33421 and the Fold of control ([2]; 0.1 μM) was 13. The “Fluorescence Intensity” value ([2]; 0.3 μM) was 34024, the Fold of control ([2]; 0.3 μM) was 13 and the “Fluorescence Intensity” value ([2]; 1 μM) was 10195. For the same compound, the Fold of control ([2]; 1 μM) was 4, the “Fluorescence Intensity” value ([2]; 3 μM) was 5728 and the Fold of control ([2]; 3 μM) was 2. For the same compound, the “TNF-α stimulated monocytic THP-1 cell adhesion to HUVECs” value ([2]; at 1 μM) was “inhibited” and the “Histopathological analysis of synovial joints” value [3] was “beneficial effects in terms of reducing cartilage destruction, bone destruction and synovitis”.
